Measurements published in the supplement of paper PMC11451515.

Tests used:
Conditions in all cases: 48 h
[1] = test system: NOMO1; assay: cell viability relative to DMSO control; higher = less cytotoxic
In short: (§1)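 Cells were incubated for 48 h at 37°C before CellTiter-Glo One luminescence was read. The cells were NOMO1 or SEM (500 cells/well) or P12-Ichikawa (1000 cells/well) leukemia cells, adapted for at least four passages in each medium and seeded in 1536-well plates (5 μl). Dosing used library compounds in DMSO applied by pin over 11 threefold points, 47 μM to 0.79 nM. Viability is the per-plate percentage of DMSO wells, with cell-free wells as background.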

[2] = test system: P12-Ichikawa; assay: as above
In short: as §1

[3] = test system: SEM cells; assay: as above
In short: as §1

[4] = test system: NOMO1; assay: AUC of viability dose-response curve (% viability x log10 dose units); higher = less sensitive
In short: (§2)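 Medium-adapted leukemia cells in 1536-well plates, at 500 or 1000 cells/well, were incubated for 48 h at 37°C with library compounds in DMSO at 11 threefold doses from 47 μM to 0.79 nM. CellTiter-Glo One luminescence normalised per plate to DMSO and cell-free wells was fitted with a four-parameter log-logistic model over log10 doses. Area under the curve was integrated from this fit by trapezoidal rule, with curves beyond full viability scaled and failed quality-control curves removed.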

[5] = test system: SEM cells; assay: as above
In short: as §2

[6] = test system: P12-Ichikawa; assay: as above
In short: as §2

CO[C@@H]1COCC[C@@H]1N[C@@H]1CC[C@@](C(=O)N2CCc3ncc(C(F)(F)F)cc3C2)(C(C)C)C1
cell viability [%], HPLM + 10% dialyzed FBS
Conditions | [1] | [2] | [3]
0.000781 µM | 107 | 98 | 97.1
0.00234 µM | 133 | 109 | 107
0.00702 µM | 121 | 123 | 110
0.0211 µM | 142 | 119 | 112
0.0632 µM | 157 | 113 | 111
0.19 µM | 141 | 119 | 113
0.569 µM | 132 | 118 | 114
1.71 µM | 127 | 126 | 102
5.12 µM | 143 | 127 | 119
15.4 µM | 151 | 123 | 103
46.1 µM | 96.6 | 47.4 | 68.1

AUC of viability dose-response curve
Conditions | HPLM + 10% dialyzed FBS | RPMI 5 mM glucose + 10% FBS | RPMI 5 mM glucose + 10% dialyzed FBS
[4] | 472 | 466 | 472
[5] | 466 | 458 | 467

CC(C)(Oc1ccc(C2CC2(Cl)Cl)cc1)C(=O)O (centres undefined)
cell viability [%], [3]
Conditions | HPLM + 10% dialyzed FBS | RPMI 5 mM glucose + 10% FBS
0.000781 µM | 125 | 117
0.00234 µM | 131 | 109
0.00702 µM | 123 | 101
0.0211 µM | 125 | 111
0.0632 µM | 127 | 101
0.19 µM | 128 | 110
0.569 µM | 120 | 91.9
1.71 µM | 122 | 119
5.12 µM | 95.3 | 79.9
15.4 µM | 110 | 106
46.1 µM | 63.6 | 49

AUC of viability dose-response curve
Conditions | [4] | [5] | [6]
HPLM + 10% dialyzed FBS | 457 | 444 | 453
RPMI 5 mM glucose + 10% FBS | 454 | 464 | 447
RPMI 5 mM glucose + 10% dialyzed FBS | 453 | 456 | 453

CCN1CCC(n2cc(CNc3cc(Cl)c4ncc(C#N)c(Nc5ccc(F)c(Cl)c5)c4c3)nn2)CC1
AUC of viability dose-response curve
Conditions | [4] | [5] | [6]
HPLM + 10% dialyzed FBS | 433 | 433 | 377
RPMI 5 mM glucose + 10% FBS | 445 | 367 | 432
RPMI 5 mM glucose + 10% dialyzed FBS | 447 | 400 | 426

COc1cc(F)c(C(C)C)cc1-c1ccc(C(F)(F)F)cc1CN1C(=O)O[C@H](c2cc(C(F)(F)F)cc(C(F)(F)F)c2)[C@@H]1C
AUC of viability dose-response curve
Conditions | [4] | [5] | [6]
HPLM + 10% dialyzed FBS | 375 | 457 | 438
RPMI 5 mM glucose + 10% FBS | 438 | 445 | 451
RPMI 5 mM glucose + 10% dialyzed FBS | 444 | 441 | 459

CNC[C@H](O)c1ccc(O)c(O)c1
cell viability [%]
Conditions | [1] | [2] | [3]
HPLM + 10% dialyzed FBS, 0.000781 µM | 112 | 96.9 | 90.5
HPLM + 10% dialyzed FBS, 0.00234 µM | 95.6 | 101 | 85.8
HPLM + 10% dialyzed FBS, 0.00702 µM | 104 | 94.8 | 71.9
HPLM + 10% dialyzed FBS, 0.0211 µM | 104 | 94.6 | 73.9
HPLM + 10% dialyzed FBS, 0.0632 µM | 96.9 | 102 | 77.3
HPLM + 10% dialyzed FBS, 0.19 µM | 102 | 93.9 | 17.6
HPLM + 10% dialyzed FBS, 0.569 µM | 88.1 | 90.2 | 63
HPLM + 10% dialyzed FBS, 1.71 µM | 89.2 | 90.9 | 68.7
HPLM + 10% dialyzed FBS, 5.12 µM | 86.3 | 91.7 | 61.3
HPLM + 10% dialyzed FBS, 15.4 µM | 77.1 | 85.7 | 70.5
HPLM + 10% dialyzed FBS, 46.1 µM | 73 | 85.8 | 53.1
RPMI 5 mM glucose + 10% FBS, 0.000781 µM | 84.7 | 102 | 104
RPMI 5 mM glucose + 10% FBS, 0.00234 µM | 89.8 | 97.3 | 97.3
RPMI 5 mM glucose + 10% FBS, 0.00702 µM | 83 | 88.6 | 85.6
RPMI 5 mM glucose + 10% FBS, 0.0211 µM | 87.6 | 99.3 | 73.1
RPMI 5 mM glucose + 10% FBS, 0.0632 µM | 84.6 | 97.9 | 102
RPMI 5 mM glucose + 10% FBS, 0.19 µM | 80.5 | 94.9 | 30.8
RPMI 5 mM glucose + 10% FBS, 0.569 µM | 90.7 | 91.7 | 87.9
RPMI 5 mM glucose + 10% FBS, 1.71 µM | 89.9 | 89.5 | 83.7
RPMI 5 mM glucose + 10% FBS, 5.12 µM | 80 | 93.5 | 79.8
RPMI 5 mM glucose + 10% FBS, 15.4 µM | 76.7 | 89.6 | 90.7
RPMI 5 mM glucose + 10% FBS, 46.1 µM | 77.9 | 89.9 | 82.4
RPMI 5 mM glucose + 10% dialyzed FBS, 0.000781 µM | 84.2 | 87.9 | 104
RPMI 5 mM glucose + 10% dialyzed FBS, 0.00234 µM | 90.4 | 92.6 | 111
RPMI 5 mM glucose + 10% dialyzed FBS, 0.00702 µM | 93.8 | 91 | 85.8
RPMI 5 mM glucose + 10% dialyzed FBS, 0.0211 µM | 85.6 | 87.3 | 83.3
RPMI 5 mM glucose + 10% dialyzed FBS, 0.0632 µM | 95.9 | 90.6 | 93.3
RPMI 5 mM glucose + 10% dialyzed FBS, 0.19 µM | 91.3 | 92.3 | 28.2
RPMI 5 mM glucose + 10% dialyzed FBS, 0.569 µM | 84.2 | 81.9 | 86.5
RPMI 5 mM glucose + 10% dialyzed FBS, 1.71 µM | 75.5 | 85.1 | 95.3
RPMI 5 mM glucose + 10% dialyzed FBS, 5.12 µM | 84.6 | 82 | 89.5
RPMI 5 mM glucose + 10% dialyzed FBS, 15.4 µM | 76.5 | 78.9 | 82.1
RPMI 5 mM glucose + 10% dialyzed FBS, 46.1 µM | 77.7 | 78.2 | 68.9

AUC of viability dose-response curve
Conditions | HPLM + 10% dialyzed FBS | RPMI 5 mM glucose + 10% FBS | RPMI 5 mM glucose + 10% dialyzed FBS
[4] | 425 | 402 | 408
[6] | 446 | 448 | 412

NC(=O)c1ccc2[nH]ccc2c1
AUC of viability dose-response curve
Conditions | [4] | [5] | [6]
HPLM + 10% dialyzed FBS | 440 | 444 | 440
RPMI 5 mM glucose + 10% FBS | 464 | 312 | 442
RPMI 5 mM glucose + 10% dialyzed FBS | 460 | 438 | 430

N/C1=N/C(=O)C/2=C(NC[C@@H](CNC3=CC=C(C=C3)C(=O)N[C@@H](CCC([O-])=O)C([O-])=O)N2C=O)\N1
[3], HPLM + 10% dialyzed FBS
Conditions | cell viability [%]
0.000781 µM | 103
0.00234 µM | 114
0.00702 µM | 120
0.0211 µM | 115
0.0632 µM | 131
0.19 µM | 114
0.569 µM | 117
1.71 µM | 116
5.12 µM | 119
15.4 µM | 123
46.1 µM | 136

AUC of viability dose-response curve
Conditions | HPLM + 10% dialyzed FBS | RPMI 5 mM glucose + 10% FBS | RPMI 5 mM glucose + 10% dialyzed FBS
[4] | 319 | 307 | 321
[5] | 446 | 465 | 437
